Experimental data published in PubChem BioAssay AID1845197 (Molecular Pharmacology Branch, DTP, NCI, 2023).
Several values for one entry are separate records, joined by “and”; a condition that tells them apart may be missing. Equal values may be shown once.

Test system: 349418-098-R tumor spheroid viability
Assay: Anticancer human tumor 349418-098-R patient-derived lung adenocarcinoma cell line growth inhibition
Details: spheroids with HUVEC and MSC; for viability, T/C: stronger effect = lower value
Summary of the method: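 Complex tumor spheroids combined malignant cells with endothelial cells and mesenchymal stem cells. DNA-damaging drugs and DNA repair inhibitors were tested alone and in combination, at half-log dilutions down from clinical Cmax (top 10 microM if Cmax unknown), 0.25% DMSO final.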

[1] = curve of first compound, second compound 0.003 µM
[2] = curve of first compound, second compound 0.00949 µM
[3] = curve of first compound, second compound 0.03 µM
[4] = curve of first compound, second compound 0.0949 µM
[5] = curve of first compound, second compound 0.3 µM
[6] = second compound 0.003 µM, first compound 0.0316 µM
[7] = second compound 0.003 µM, first compound 0.1 µM
[8] = second compound 0.003 µM, first compound 0.316 µM
[9] = second compound 0.003 µM, first compound 1 µM
[10] = second compound 0.003 µM, first compound 3.16 µM
[11] = second compound 0.003 µM, first compound 10 µM
[12] = second compound 0.00949 µM, first compound 0.0316 µM
[13] = second compound 0.00949 µM, first compound 0.1 µM
[14] = second compound 0.00949 µM, first compound 0.316 µM
[15] = second compound 0.00949 µM, first compound 1 µM
[16] = second compound 0.00949 µM, first compound 3.16 µM
[17] = second compound 0.00949 µM, first compound 10 µM
[18] = second compound 0.03 µM, first compound 0.0316 µM
[19] = second compound 0.03 µM, first compound 0.1 µM
[20] = second compound 0.03 µM, first compound 0.316 µM
[21] = second compound 0.03 µM, first compound 1 µM
[22] = second compound 0.03 µM, first compound 3.16 µM
[23] = second compound 0.03 µM, first compound 10 µM
[24] = second compound 0.0949 µM, first compound 0.0316 µM
[25] = second compound 0.0949 µM, first compound 0.1 µM
[26] = second compound 0.0949 µM, first compound 0.316 µM
[27] = second compound 0.0949 µM, first compound 1 µM
[28] = second compound 0.0949 µM, first compound 3.16 µM
[29] = second compound 0.0949 µM, first compound 10 µM
[30] = second compound 0.3 µM, first compound 0.0316 µM
[31] = second compound 0.3 µM, first compound 0.1 µM
[32] = second compound 0.3 µM, first compound 0.316 µM
[33] = second compound 0.3 µM, first compound 1 µM
[34] = second compound 0.3 µM, first compound 3.16 µM
[35] = second compound 0.3 µM, first compound 10 µM
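Note: spheroids exposed to compound for 7 days before measurement.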
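Throughout, for viability, T/C: percent of vehicle control viability with 100% = DMSO-treated spheroids.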

Structure (SMILES): CC(C)n1c(=O)n(C)c2cnc3cc(F)c(-c4ccc(OCCCN5CCCCC5)nc4)cc3c21
- viability, T/C (compound 0.0316 µM): 89% and 110% (2×)
- viability, T/C (compound 0.1 µM): 97.8% and 97.9% and 106%
- viability, T/C (compound 0.316 µM): 94.4% and 93.9% and 108%
- viability, T/C (compound 1 µM): 105% and 97.3% and 108%
- viability, T/C (compound 3.16 µM): 109% and 102% and 105%
- viability, T/C (compound 10 µM): 56.8% and 48.3% and 85.3%
- IC50 (curve of compound): > 10000 nM and 9630 nM

Structure (SMILES): COc1ccc([C@@H](O)c2cc(-c3ncnc4cc(N5CCOCC5)ccc34)c(F)cc2Cl)nn1 + CC[C@@]1(O)C(=O)OCc2c1cc1n(c2=O)Cc2cc3c(CN(C)C)c(O)ccc3nc2-1
- IC50 [1]: 7870 nM
- IC50 [2]: 6180 nM
- IC50 [3]: 679 nM
- IC50 [4]: < 31.6 nM
- IC50 [5]: < 31.6 nM
- viability, T/C [6]: 103%
- viability, T/C [7]: 107%
- viability, T/C [8]: 106%
- viability, T/C [9]: 106%
- viability, T/C [10]: 89.2%
- viability, T/C [11]: 39%
- viability, T/C [12]: 90.1%
- viability, T/C [13]: 102%
- viability, T/C [14]: 106%
- viability, T/C [15]: 102%
- viability, T/C [16]: 82.8%
- viability, T/C [17]: 26.5%
- viability, T/C [18]: 69.8%
- viability, T/C [19]: 78.5%
- viability, T/C [20]: 60.4%
- viability, T/C [21]: 43.9%
- viability, T/C [22]: 26.1%
- viability, T/C [23]: 18.9%
- viability, T/C [24]: 18.4%
- viability, T/C [25]: 11.6%
- viability, T/C [26]: 14.2%
- viability, T/C [27]: 13.7%
- viability, T/C [28]: 11.4%
- viability, T/C [29]: 9.78%
- viability, T/C [30]: 4.47%
- viability, T/C [31]: 3.97%
- viability, T/C [32]: 4.59%
- viability, T/C [33]: 4.78%
- viability, T/C [34]: 4.77%
- viability, T/C [35]: 3.94%

Structure (SMILES): CC(C)n1c(=O)n(C)c2cnc3cc(F)c(-c4ccc(OCCCN5CCCCC5)nc4)cc3c21 + CC[C@@]1(O)C(=O)OCc2c1cc1n(c2=O)Cc2cc3c(CN(C)C)c(O)ccc3nc2-1
- IC50 [1]: > 10000 nM
- IC50 [2]: 4930 nM
- IC50 [3]: < 31.6 nM
- IC50 [4]: < 31.6 nM
- IC50 [5]: < 31.6 nM
- viability, T/C [6]: 96.9%
- viability, T/C [7]: 93.2%
- viability, T/C [8]: 93.8%
- viability, T/C [9]: 99.6%
- viability, T/C [10]: 100%
- viability, T/C [11]: 63.9%
- viability, T/C [12]: 67.6%
- viability, T/C [13]: 69.3%
- viability, T/C [14]: 66.2%
- viability, T/C [15]: 67.7%
- viability, T/C [16]: 63.4%
- viability, T/C [17]: 28.7%
- viability, T/C [18]: 24.3%
- viability, T/C [19]: 22%
- viability, T/C [20]: 22.2%
- viability, T/C [21]: 22.7%
- viability, T/C [22]: 27.8%
- viability, T/C [23]: 17%
- viability, T/C [24]: 7.03%
- viability, T/C [25]: 9.49%
- viability, T/C [26]: 9.54%
- viability, T/C [27]: 9.81%
- viability, T/C [28]: 11.7%
- viability, T/C [29]: 12.4%
- viability, T/C [30]: 5.01%
- viability, T/C [31]: 4.88%
- viability, T/C [32]: 5.74%
- viability, T/C [33]: 6.26%
- viability, T/C [34]: 8.16%
- viability, T/C [35]: 8.82%

Structure (SMILES): CC1COCCN1c1cc(-c2ccnn2C)c2ccnc(-c3ccn[nH]3)c2n1 (configuration not stated) + Cn1nnc2c(C(N)=O)ncn2c1=O
- IC50 (curve of first compound, second compound 1 µM): 66.4 nM
- IC50 (curve of first compound, second compound 3.16 µM): 64 nM
- IC50 (curve of first compound, second compound 10 µM): 61.4 nM
- IC50 (curve of first compound, second compound 31.6 µM): 67.9 nM
- IC50 (curve of first compound, second compound 100 µM): 52.6 nM
- viability, T/C (second compound 1 µM, first compound 0.0316 µM): 90.2%
- viability, T/C (second compound 1 µM, first compound 0.1 µM): 27.8%
- viability, T/C (second compound 1 µM, first compound 0.316 µM): 11.8%
- viability, T/C (second compound 1 µM, first compound 1 µM): 11.1%
- viability, T/C (second compound 1 µM, first compound 3.16 µM): 11.1%
- viability, T/C (second compound 1 µM, first compound 10 µM): 10.9%
- viability, T/C (second compound 3.16 µM, first compound 0.0316 µM): 90.5%
- viability, T/C (second compound 3.16 µM, first compound 0.1 µM): 24.4%
- viability, T/C (second compound 3.16 µM, first compound 0.316 µM): 12.5%
- viability, T/C (second compound 3.16 µM, first compound 1 µM): 10.3%
- viability, T/C (second compound 3.16 µM, first compound 3.16 µM): 11.1%
- viability, T/C (second compound 3.16 µM, first compound 10 µM): 10.4%
- viability, T/C (second compound 10 µM, first compound 0.0316 µM): 90.7%
- viability, T/C (second compound 10 µM, first compound 0.1 µM): 20%
- viability, T/C (second compound 10 µM, first compound 0.316 µM): 11.9%
- viability, T/C (second compound 10 µM, first compound 1 µM): 9.88%
- viability, T/C (second compound 10 µM, first compound 3.16 µM): 11.1%
- viability, T/C (second compound 10 µM, first compound 10 µM): 9.65%
- viability, T/C (second compound 31.6 µM, first compound 0.0316 µM): 91.9%
- viability, T/C (second compound 31.6 µM, first compound 0.1 µM): 28.8%
- viability, T/C (second compound 31.6 µM, first compound 0.316 µM): 10.5%
- viability, T/C (second compound 31.6 µM, first compound 1 µM): 9.5%
- viability, T/C (second compound 31.6 µM, first compound 3.16 µM): 11.8%
- viability, T/C (second compound 31.6 µM, first compound 10 µM): 10.2%
- viability, T/C (second compound 100 µM, first compound 0.0316 µM): 77.9%
- viability, T/C (second compound 100 µM, first compound 0.1 µM): 14.8%
- viability, T/C (second compound 100 µM, first compound 0.316 µM): 9.79%
- viability, T/C (second compound 100 µM, first compound 1 µM): 9.43%
- viability, T/C (second compound 100 µM, first compound 3.16 µM): 9.05%
- viability, T/C (second compound 100 µM, first compound 10 µM): 9.14%
